Assays:
[1] = molecular target: T1, human androgen receptor (Homo sapiens, UniProt P10275); experiment: AR transcriptional activity on MMTV-LUC, CV-1 cells, AR alone; format: cell-based; details: FIG. 10
T1 sequence (P10275 1-920): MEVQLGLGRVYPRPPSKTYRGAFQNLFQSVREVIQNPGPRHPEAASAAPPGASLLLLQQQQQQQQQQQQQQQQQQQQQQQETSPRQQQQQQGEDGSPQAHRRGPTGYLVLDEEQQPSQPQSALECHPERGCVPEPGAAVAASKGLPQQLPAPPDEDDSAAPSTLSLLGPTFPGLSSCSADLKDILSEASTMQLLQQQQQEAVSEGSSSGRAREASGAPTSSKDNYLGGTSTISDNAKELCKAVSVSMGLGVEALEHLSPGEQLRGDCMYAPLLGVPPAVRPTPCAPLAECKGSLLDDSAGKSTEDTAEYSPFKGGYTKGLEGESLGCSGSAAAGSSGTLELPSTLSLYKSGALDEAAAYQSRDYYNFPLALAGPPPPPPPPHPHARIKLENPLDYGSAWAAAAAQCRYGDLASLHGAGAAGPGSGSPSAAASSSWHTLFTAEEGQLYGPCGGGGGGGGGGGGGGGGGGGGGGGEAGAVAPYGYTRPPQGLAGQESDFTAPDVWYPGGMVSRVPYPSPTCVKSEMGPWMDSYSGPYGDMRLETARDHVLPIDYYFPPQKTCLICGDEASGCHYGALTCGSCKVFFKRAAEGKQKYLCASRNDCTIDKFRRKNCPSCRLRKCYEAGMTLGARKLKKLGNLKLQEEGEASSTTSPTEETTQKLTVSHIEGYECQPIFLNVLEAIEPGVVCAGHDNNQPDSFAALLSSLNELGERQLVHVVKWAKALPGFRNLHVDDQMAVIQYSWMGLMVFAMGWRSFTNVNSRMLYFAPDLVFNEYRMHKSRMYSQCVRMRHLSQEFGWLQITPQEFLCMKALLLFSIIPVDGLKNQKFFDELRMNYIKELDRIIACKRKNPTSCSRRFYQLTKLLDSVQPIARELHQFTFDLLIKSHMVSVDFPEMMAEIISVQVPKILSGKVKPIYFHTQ
Procedure: FIGS. 10A-10B are a series of graphs showing CV-1 cells that were transiently transfected with an expression vector for the human androgen receptor (pRShAR) alone, or in combination with phPR-A together with 5 µg/ml of the MMTV-LUC reporter and 5 µg/ml of pCH110 as an internal control. […] The relative luciferase activity is calculated by dividing the normalized luciferase value at a given point by that obtained in the absence of transfected receptor or ligand. […] The data are presented as percent (%) activation, where 100% represents the maximal induction achieved by human androgen receptor at 10^ -8 M DHT. The experimental data represents mean values +/- the average deviation from the mean of quadruplicate estimations;
Cells were seeded in 12-well, 96-well or 10 cm tissue culture plates. […] 20 μg of DNA/ml of transfection buffer were used in each transfection reaction. In this mix, the concentration of the luciferase plasmids and that of the internal control plasmid pCH110 (Pharmacia, Inc.), which contains the gene for the β-galactosidase enzyme, remained constant ([…] of each plasmid DNA), while the receptor plasmid concentration varied as indicated for each experiment. […]

[2] = tested on: PR; details: cited from earlier work
[3] = tested on: human vitamin D receptor; experiment: VDR transcriptional activity on VDRE2 tk-LUC with PR-A, CV-1 cells; format: cell-based; details: absence or presence of progesterone, FIG. 7
Source text: The data shown represent the mean value +/- the average deviation from the mean of triplicate determinations;
To analyze the specificity of PR-A action, we examined its ability to affect other receptor-dependent transcription systems. For this purpose, phPR-A was cotransfected with a vector expressing the vitamin D receptor (VDR) and assayed on a VDRE2 tk-LUC reporter (available from Dr. J. Wesley Pike, Ligand Pharmaceuticals, Inc.).

Row | SMILES | effect on DHT-induced AR activity [1] | effect on PR DNA binding [2] | effect of PR-A co-expression on hormone-dependent transactivation by VDR [3]
1 | CC#C[C@]1(O)CC[C@H]2[C@@H]3CCC4=CC(=O)CCC4=C3[C@@H](c3ccc(C(C)=O)cc3)C[C@@]21C [ZK112993] | efficient inhibitor of DHT-activated AR | promotes the association of PR with DNA | 
2 | CC(=O)[C@H]1CC[C@H]2[C@@H]3CCC4=CC(=O)CC[C@]4(C)[C@H]3CC[C@]12C [progesterone] |  |  | not substantially affected

From patent US5506102A (priority 1993, dated 1996)
